We go through 18 compounds from patent US7932266B2, “Isoquinoline derivatives as calpain inhibitors” (Consejo Superior de Investigaciones Cientificas, priority 2004, dated 2011).

Data set [1] concerns the target T1, calpain I from porcine erythrocyte (Sus scrofa, UniProt P35750).
T1 construct: calpain I from porcine erythrocyte (Calbiochem, Cat No 208712) was used as enzyme; purchased Calbiochem 208712; host or cells: porcine erythrocyte (natural source)
T1 sequence (P35750 1-714): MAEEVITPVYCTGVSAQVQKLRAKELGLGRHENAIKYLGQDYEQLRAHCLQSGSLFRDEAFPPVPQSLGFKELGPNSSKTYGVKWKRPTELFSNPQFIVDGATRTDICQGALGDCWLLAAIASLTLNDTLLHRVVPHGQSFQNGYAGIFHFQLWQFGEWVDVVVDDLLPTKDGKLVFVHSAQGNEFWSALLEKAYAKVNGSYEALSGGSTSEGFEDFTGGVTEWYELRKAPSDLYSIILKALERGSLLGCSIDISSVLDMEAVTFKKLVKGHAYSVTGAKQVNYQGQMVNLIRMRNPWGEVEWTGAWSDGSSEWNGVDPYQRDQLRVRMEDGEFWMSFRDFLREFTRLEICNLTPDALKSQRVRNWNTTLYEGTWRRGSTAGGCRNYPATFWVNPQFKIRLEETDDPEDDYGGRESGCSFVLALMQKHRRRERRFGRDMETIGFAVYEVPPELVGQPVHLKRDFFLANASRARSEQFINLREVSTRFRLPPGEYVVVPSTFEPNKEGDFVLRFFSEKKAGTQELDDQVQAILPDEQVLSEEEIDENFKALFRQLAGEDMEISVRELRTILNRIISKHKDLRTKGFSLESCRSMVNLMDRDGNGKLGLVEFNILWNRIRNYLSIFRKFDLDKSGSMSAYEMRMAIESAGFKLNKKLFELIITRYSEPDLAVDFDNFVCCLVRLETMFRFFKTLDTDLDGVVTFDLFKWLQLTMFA
T1 sequence (P04574 1-266 partner): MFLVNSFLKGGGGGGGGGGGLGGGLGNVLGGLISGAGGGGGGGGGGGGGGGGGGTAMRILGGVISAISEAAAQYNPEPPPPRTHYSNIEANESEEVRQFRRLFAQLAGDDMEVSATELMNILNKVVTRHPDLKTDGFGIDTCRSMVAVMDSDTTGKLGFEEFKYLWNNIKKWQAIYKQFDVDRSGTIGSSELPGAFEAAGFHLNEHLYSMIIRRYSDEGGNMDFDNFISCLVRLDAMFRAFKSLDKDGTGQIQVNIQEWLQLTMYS
The experiment in a line: Enzyme activity test: inhibition of calpain (fluorimetric, BODIPY-FL casein substrate). The data set is classed as biochemical. As to conditions: 7 inhibitor concentrations between 10 nM and 200 μM. An excerpt:
The capacity to inhibit calpain has been quantified in terms of the value of IC50, which is defined as the concentration of inhibitor that reduces the catalytic activity of an enzyme by half. The lower the value of IC50, the more powerful the inhibitor. Inhibition results on calpain I (the most relevant from a physiological point of view) of some compounds of the present invention are shown in table 1 and in FIG. 1. Given that calpain II, also known as milli-calpain, needs a greater amount of Ca^2+ for activation, it might not possibly have such a relevant physiological role since such a concentration of Ca^2+ would cause cell death before the milli-calpain could become activated. For this reason, the inhibition tests have been performed for calpain I, though they can be extrapolated for calpain II.
The calpain inhibition capacity has been quantified in terms of the value of IC50, which is defined as the concentration of inhibitor that reduces the catalytic activity of an enzyme by half. The lower the value of IC50, the more powerful the inhibitor. Inhibition results on calpain I (the most relevant from a physiological point of view) of some compounds of the present invention are shown in table 1 and in FIG. 1.
The experiments were conducted spectrofluorimetrically using a Spectrofluor Tecan Corp 93382 spectrofluorimeter, exciting at […] and measuring at […]. Casein marked with BODIPY-FL® (Molecular Probes) was used as substrate and calpain I from porcine erythrocyte (Calbiochem, Cat No 208712) was used as enzyme. The freeze-dried substrate is component A of the protease assay kit EnzChek® green fluorescence from Molecular Probes (reference # E-6638); component B, known as 20× digestion buffer, contains 13 mL of 200 mM Tris-HCl, pH 7.8 and 2 mM sodium azide. The commercial calpain I that was used has a concentration of 1 mg in 1 mL of aqueous solution (the solution is 20 mM imidazol-HCl, pH 6.8, 1 mM EDTA, 1 mM EGTA, 5 mM β-mercaptoethanol, containing 30% glycerine).
2.5 mL of 20× digestion buffer (component B of the kit from Molecular Probes) was diluted with water to a total volume of 50 mL.
200 μg of freeze-dried substrate (component A of the kit from Molecular Probes) was dissolved in 200 μL of phosphate saline buffer. This solution was decanted into a graduated flask and diluted with the digestion solution to a total volume of 40 mL.
20 μL of commercial solution of calpain was diluted with the digestion solution to a total volume of 200 μL.
The inhibitor was dissolved in DMSO. Each inhibitor was assayed at 7 different concentrations between 10 nM and 200 μM.
All the data were obtained measuring the variation in fluorescence with time. The use of a multi-cell device and Eppendorf multi-channel pipettes permitted measurement of the variation in fluorescence in up to 64 experiments. In this way, the control experiment and the experiments with the different concentrations of inhibitor was carried out in the same set of measurements. All the experiments were conducted twice.
The control experiment was carried out mixing 180 μL of casein solution and 5 μL of calpain solution. The reaction was initiated by the addition of 10 μL of a 50 μM solution of CaCl2 in water, and the fluorescence was measured from the moment of the addition of Ca^2+ (time=0) and for 250-300 seconds (measuring during 20 kinetic cycles). The variation in fluorescence (ΔF) was represented against time (t). In order to test the effect of DMSO on enzyme activity, additional control experiments were conducted adding DMSO (in the quantities used in the experiments with the inhibitors), with the same result being obtained as in the control experiment.
180 μL of casein solution, 5 μL of calpain solution and 5 μL of inhibitor solution (of variable concentration) were mixed together. […]

In data set [1], `CC[C@H](C)[C@@H]1NC(=O)c2ccccc2/C1=C/C(=O)OC` [Compound 7, methyl (S,S,Z)-(3-sec-butyl-1-oxo-2,3-dihydro-1H-isoquinolin-4-yliden)-acetate] gave an IC50 of 0.025 µM.
Take `CC[C@H](C)[C@@H]1NC(=O)c2ccccc2/C1=C/C(=O)O` [Compound 8, (S,S,Z)-(3-sec-butyl-1-oxo-2,3-dihydro-1H-isoquinolin-4-yliden)-acetic acid]: the melting point was 215 to 216 °C.
Take `CCCCOC(=O)/C=C1/c2ccccc2C(=O)N[C@H]1[C@@H](C)CC` [Compound 10, 1-butyl (S,S,Z)-(3-sec-butyl-1-oxo-2,3-dihydro-1H-isoquinolin-4-yliden)-acetate]: the melting point lay within 110 to 112 °C.
For `CC[C@H](C)[C@@H]1NC(=O)c2ccccc2/C1=C/C(=O)OCc1ccccc1` [Compound 11, benzyl (S,S,Z)-(3-sec-butyl-1-oxo-2,3-dihydro-1H-isoquinolin-4-yliden)-acetate], the melting point was 53 to 54 °C. In data set [1], this compound yielded an IC50 of 124 µM.
Compound `CCC(C)C1NC(=O)c2ccccc2/C1=C/C(=O)OC/C=C\COC(=O)/C=C1/c2ccccc2C(=O)N[C@H]1[C@@H](C)CC` (stereo partly drawn) [Compound 12] displayed a melting point of 79 to 81 °C. For the same compound, inhibition in data set [1] was half-maximal at 85 µM (IC50).
For the compound `CC[C@H](C)[C@@H]1NC(=O)c2ccccc2/C1=C/C(=O)OCC#CCOC(=O)/C=C1/c2ccccc2C(=O)N[C@H]1[C@@H](C)CC` [Compound 13], the melting point lay in the range of 85 to 87 °C. Also, the IC50 in data set [1] was 59 µM.
The like results for `CC[C@H](C)[C@@H]1NC(=O)c2ccccc2/C1=C/C(=O)OCc1ccc(COC(=O)/C=C2/c3ccccc3C(=O)N[C@H]2[C@@H](C)CC)cc1` [Compound 14] were, in that order, 213 to 215 °C and 5 µM.
Taken in the same sequence, the figures for `CC[C@H](C)[C@@H]1NC(=O)c2ccccc2/C1=C/C(=O)NCc1ccccc1` [Compound 15, (S,S,Z)-N-benzyl-2-(3-sec-butyl-1-oxo-2,3-dihydro-1H-isoquinolin-4-yliden)-acetamide] were 90 to 94 °C and 140 µM.
The compound `CC[C@H](C)[C@@H]1NC(=O)c2ccccc2/C1=C/C(=O)Nc1cccc(C(C)=O)c1` [Compound 16, (S,S,Z)-N-(3-acetyl-phenyl)-2-(3-sec-butyl-1-oxo-2,3-dihydro-1H-isoquinolin-4-yliden)-acetamide] displayed a melting point of 147 to 151 °C. Besides, half-maximal inhibition in data set [1] (IC50) required 130 µM.
`CC[C@H](C)[C@@H]1NC(=O)c2ccccc2/C1=C/C(=O)Nc1ccccc1-c1ccccc1N` [Compound 17, (S,S,Z)-N-(2′-amino-biphenyl-2-yl)-2-(3-sec-butyl-1-oxo-2,3-dihydro-1H-isoquinolin-4-yliden)-acetamide] displayed an IC50 in data set [1] of 0.086 µM.
Regarding `CC[C@H](C)[C@@H]1NC(=O)c2ccccc2/C1=C/C(=O)Nc1ccccc1-c1ccccc1NC(=O)/C=C1/c2ccccc2C(=O)N[C@H]1[C@@H](C)CC` [Compound 18, (S,S,S,S,Z,Z)-2,2′-bis-[(3-sec-butyl-1-oxo-2,3-dihydro-1H-isoquinolin-4-yliden)-acetylamino]biphenyl], the melting point was 177 to 180 °C. Further, in data set [1], 0.742 µM corresponded to half-maximal inhibition (IC50).
The compound `CC[C@H](C)[C@@H]1NC(=O)c2ccccc2/C1=C/C(=O)Nc1ccccc1-c1ccccc1NC(=O)[C@@H](NC(=O)OCC1c2ccccc2-c2ccccc21)C(C)C` [Compound 19, (S,S,S,Z)-9H-fuorene-9-ylmethyl (1-{2′-[2-(3-sec-butyl-1-oxo-2,3-dihydro-1H-isoquinolin-4-yliden)-acetylamino]-biphenyl-2-ylcarbamoyl}-2-methyl-propyl)-carbamate] came in with a melting point of 133 to 135 °C. In data set [1], this compound returned an IC50 of 100 µM.
In turn, `CC[C@H](C)[C@@H]1NC(=O)c2ccccc2/C1=C/C(=O)Nc1ccccc1-c1ccccc1NC(=O)[C@H](Cc1ccccc1)NC(=O)OCC1c2ccccc2-c2ccccc21` [Compound 20, (S,S,S,Z)-9H-fuorene-9-ylmethyl (1-{2′-[2-(3-sec-butyl-1-oxo-2,3-dihydro-1H-isoquinolin-4-yliden)-acetylamino]-biphenyl-2-ylcarbamoyl}-2-phenyl-ethyl)-carbamate] registered a melting point of 108 to 110 °C. For the same compound, in data set [1], half-maximal inhibition (IC50) was put at 48 µM.
In the case of `CC[C@H](C)[C@@H]1NC(=O)c2ccccc2/C1=C/C(=O)Nc1ccccc1-c1ccccc1NC(=O)[C@@H](N)Cc1ccccc1` [Compound 23, (S,S,S,Z)-2-amino-N-{2′-[2-(3-sec-butyl-1-oxo-2,3-dihydro-1H-isoquinolin-4-yliden)-acetylamino]-biphenyl-2-yl}-3-phenyl-propionamide], the midpoint of inhibition in data set [1], the IC50, lay at 7 µM. In other words, the single-digit micromolar range.
On to `CC[C@H](C)[C@H](N)C(=O)Nc1ccccc1-c1ccccc1NC(=O)/C=C1/c2ccccc2C(=O)N[C@H]1[C@@H](C)CC` [Compound 24, (S,S,S,S,Z)-2-amino-N-{2′-[2-(3-sec-butyl-1-oxo-2,3-dihydro-1H-isoquinolin-4-yliden)-acetylamino]-biphenyl-2-yl}-3-methyl-pentanamide], for which it took 50 µM to reach half-maximal inhibition in data set [1] (IC50).
Take `CC[C@H](C)[C@H](NC(=O)/C=C1/c2ccccc2C(=O)N[C@H]1[C@@H](C)CC)C(=O)N[C@H](C(=O)OC)[C@@H](C)CC` [Compound 25, methyl (S,S,S,S,S,Z)-2-{2-[2-(3-sec-butyl-1-oxo-2,3-dihydro-1H-isoquinolin-4-yliden)-acetylamino]-3-methyl-pentanoylamino}-3-methyl-pentanoate]: the IC50 in data set [1] is 0.447 µM.
Take `CC[C@H](C)[C@@H]1NC(=S)c2ccccc2/C1=C/C(=O)O` [Compound 29, (S,S,Z)-(3-sec-butyl-1-thioxo-2,3-dihydro-1H-isoquinolin-4-yliden)-acetic acid]: the melting point was 193 to 196 °C.
`CC[C@H](C)[C@H](NC(=O)/C=C1/c2ccccc2C(=S)N[C@H]1[C@@H](C)CC)C(=O)N[C@H](C(=O)OC)[C@@H](C)CC` [Compound 30, methyl (S,S,S,S,S,S,Z)-2-{2-[2-(3-sec-butyl-1-thioxo-2,3-dihydro-1H-isoquinolin-4-yliden)-acetylamino]-3-methyl-pentanoylamino}-3-methyl-pentanoate] registered a melting point of 178 to 181 °C.

What is called IC50 is the concentration at which inhibition is half-maximal. A high value points to weaker potency in that assay. As a reminder, the melting point is the temperature of the solid-liquid transition.
